Source: patent publication US11660291B2, “IL-8 inhibitors for use in the treatment of some sarcomas” (Dompe' Farmaceutici S.P.A., priority 2017, dated 2023)
“Also recorded” adds a separate entry of the source.

Assays:
OS-17 cells = test: Transwell migration and invasion assays, serum as chemoattractant, small molecule inhibitors; assay type: cell-based, human; conditions: 24 hours
Method: OS cells were cultured on a transwell chamber membrane, then subjected transferred to a chamber containing RPMI with 2.5% FBS (pos ctl) or RPMI alone (neg ctl). Other wells containing 2.5% FBS in the bottom chamber were treated with 1 uM sc144, 10 nM D[…], or both. After 24 hours, top chambers were scraped clean, membranes stained and cells counted. Transwell migration and invasion assays. 1×10^4 OS cells were plated into transwell inserts (either Falcon #353097 for migration or Corning #354483 for Matrigel invasion assays) containing appropriate chemotactic factors. After 24 hours of incubation, transwells were drained and upper chambers/membrane upper surfaces scraped using a polyester swab. Membranes were stained using a Dif-Quik Stain Set (Siemens #B4132-1A) and dried, then imaged on an inverted microscope. Cells were quantified using Adobe Photoshop counting tools. For experiments involving IL-6 and IL-8 chemotaxis, media contained 1% FBS in both chambers, with recombinant protein added to the bottom chamber to make 50 ng/ml IL6 (BioLegend #570804) or 100 ng/ml IL-8 (BioLegend #574204). For experiments using serum as a chemoattractant, top chambers contained RPMI only, while bottom chambers contained 1% or 2.5% serum. Where noted, 20 ug/ml of neutralizing antibodies to either IL6 (Abcam #AB6672), IL-8 (Abcam #AB18672), or both were added to both upper and lower chambers. […]

pFAK = test: PD analysis in lung tissue, IHC for pFAK; assay type: in vivo, mouse
Method: Mice treated with injections of either DF2156A or sc144 daily were euthanized 24 hours subsequent to their 14th dose of drug. Lungs harvested from those mice were processed using standard FFPE, then sectioned and stained with IHC for either pFAK (downstream of IL-8) or pSTAT3 (downstream of IL-6).
To evaluate the functional importance of IL-6 and IL-8 pathways to OS lung metastasis, the present inventors used the xenograft models. Balb-SCID mice inoculated via tail vein with 1×10^6 luciferase-labeled OS-17 cells received treatment with sc144 (the gp130 inhibitor), DF2156A (the CXCR1/2 inhibitor), or both. Mice continued to receive treatment for 42 days, after which treatment stopped. Intravital imaging for in vivo assessment of tumor burden was performed at 14 and 24 days using standard bioluminescent techniques. […] Two mice from each single-agent treatment group were euthanized 24 hours after the 14th dose of drug to perform pharmacodynamics (PD) assessment of target inhibition.

Compound: C[C@@H](C(=O)NS(C)(=O)=O)c1ccc(OS(=O)(=O)C(F)(F)F)cc1 [DF2156A]
- directional migration and invasion (OS-17 cells; serum (2.5% FBS) as chemoattractant, 1 uM sc144, 10 nM DF2156A (FIG. 2)): suffices to prevent directional migration and invasion
- amount of migration of OS cells (OS-17 cells; serum as chemoattractant, transwell): significantly decreased the amount of migration
- pFAK IHC staining in lung (target inhibition, downstream of IL-8) (pFAK; 24 hours after the 14th daily dose (dosing trough)): sustained target inhibition; also recorded: reduced the amount of activation seen
- number of infiltrating cells in lung (pFAK; 24 hours after the 14th daily dose (trough concentrations)): reduced
